Laboratory results: ChEMBL document CHEMBL3352105, “Design, synthesis and SAR analysis of antitumour styryl lactones related to (+)-crassalactones B and C” (Eur J Med Chem, 2014)

Experiments:
MRC5 = experiment: Cytotoxicity against human MRC5 cells after 72 hrs by MTT assay; format: cell-based; conditions: MRC5, 72 h
Jurkat = experiment: Cytotoxicity against human Jurkat cells after 72 hrs by MTT assay; format: functional, cell-based
HeLa = experiment: Cytotoxicity against human HeLa cells after 72 hrs by MTT assay; format: functional, cell-based
MDA-MB-231 = experiment: Cytotoxicity against human MDA-MB-231 cells after 72 hrs by MTT assay; format: functional, cell-based; conditions: MDA-MB-231, 72 h
[1] = Cytotoxicity against human HL60 cells after 72 hrs by MTT assay; format: functional, cell-based; conditions: HL-60, 72 h
K562 = experiment: Cytotoxicity against human K562 cells after 72 hrs by MTT assay; format: functional, cell-based; conditions: K562, 72 h
MCF7 = experiment: Cytotoxicity against human MCF7 cells after 72 hrs by MTT assay; format: functional, cell-based; conditions: MCF7, 72 h
Raji [2] = experiment: Cytotoxicity against human Raji cells after 72 hrs by MTT assay; format: functional, cell-based
HL-60 = experiment: Potency index, ratio of IC50 for doxorubicin to IC50 for test compound against human HL60 cells after 72 hrs by MTT assay; format: functional
Raji [3] = experiment: Potency index, ratio of IC50 for doxorubicin to IC50 for test compound against human Raji cells after 72 hrs by MTT assay; format: functional

Row | SMILES | IC50 (MRC5) [µM] | IC50 (Jurkat) [µM] | IC50 (HeLa) [µM] | IC50 (MDA-MB-231) [µM] | IC50 [1] [µM] | IC50 (K562) [µM] | IC50 (MCF7) [µM] | IC50 (Raji [2]) [µM] | Ratio IC50 (HL-60) | Ratio IC50 (Raji [3])
1 | COc1ccc(/C=C/C(=O)O[C@@H]2[C@H]3OC(=O)C[C@H]3O[C@@H]2[C@H](O)c2ccccc2)cc1 | > 100 | 13.4 | 18.6 | > 100 | 50.2 | 4.21 | 11.1 | 5.69 |  | 
2 | O=C(/C=C/c1ccc([N+](=O)[O-])cc1)O[C@@H]1[C@H]2OC(=O)C[C@H]2O[C@@H]1[C@H](O)c1ccccc1 | > 100 | 44.7 | 21.4 | 5.36 | 48.2 | 14.6 | > 100 | 8.23 |  | 
3 | O=C(/C=C/c1ccc(F)cc1)O[C@@H]1[C@H]2OC(=O)C[C@H]2O[C@@H]1[C@H](O)c1ccccc1 | > 100 | 17.6 | 29.9 | 25.7 | 11.5 | 10.2 | 14.9 | 11.1 |  | 
4 | COc1ccc(/C=C/C(=O)O[C@H](c2ccccc2)[C@H]2O[C@@H]3CC(=O)O[C@@H]3[C@H]2O)cc1 | > 100 | 42.3 | 24.9 | > 100 | 41.4 | 3.25 | 12.3 | 4.37 |  | 
5 | O=C(/C=C/c1ccc([N+](=O)[O-])cc1)O[C@H](c1ccccc1)[C@H]1O[C@@H]2CC(=O)O[C@@H]2[C@H]1O | > 100 | 10.5 | 35.7 | 33.4 | 14.3 | 2.25 | 5.23 | 16.4 |  | 
6 | O=C(/C=C/c1ccc(F)cc1)O[C@H](c1ccccc1)[C@H]1O[C@@H]2CC(=O)O[C@@H]2[C@H]1O | > 100 | 18.1 | 24.1 | 29.6 | 9.45 | 4.58 | 18.7 | 14.5 |  | 
7 | O=C(/C=C/c1ccccc1)O[C@@H]1[C@H]2OC(=O)C[C@H]2O[C@@H]1[C@@H](O)c1ccccc1 | > 100 | 0.87 | 2.47 | 8.64 | 0.02 | 3.33 | 0.22 | 14.5 | 46 | 
8 | COc1ccc(/C=C/C(=O)O[C@@H]2[C@H]3OC(=O)C[C@H]3O[C@@H]2[C@@H](O)c2ccccc2)cc1 | > 100 | 1.12 | 3.21 | 7.32 | 0.11 | 2.63 | 20.2 | 2.34 |  | 
9 | O=C(/C=C/c1ccc([N+](=O)[O-])cc1)O[C@@H]1[C@H]2OC(=O)C[C@H]2O[C@@H]1[C@@H](O)c1ccccc1 | > 100 | 3.52 | 1.66 | 2.64 | 0.36 | 1.12 | 56.2 | 1.02 |  | 3
10 | O=C(/C=C/c1ccc(F)cc1)O[C@@H]1[C@H]2OC(=O)C[C@H]2O[C@@H]1[C@@H](O)c1ccccc1 | > 100 | 0.69 | 4.12 | 1.32 | 2.11 | 0.85 | 84.5 | 1.74 |  | 
11 | O=C(/C=C/c1ccccc1)O[C@@H](c1ccccc1)[C@H]1O[C@@H]2CC(=O)O[C@@H]2[C@H]1O | > 100 | 1.03 | 0.69 | 3.37 | 1.34 | 2.01 | 9.47 | 1.31 |  | 
12 | COc1ccc(/C=C/C(=O)O[C@@H](c2ccccc2)[C@H]2O[C@@H]3CC(=O)O[C@@H]3[C@H]2O)cc1 | > 100 | 18.6 | 11 | 28.6 | 8.79 | 11.5 | 9.64 | 8.45 |  | 
13 | O=C(/C=C/c1ccc([N+](=O)[O-])cc1)O[C@@H](c1ccccc1)[C@H]1O[C@@H]2CC(=O)O[C@@H]2[C@H]1O | > 100 | 24.6 | 4.01 | 64.2 | 10.5 | 14.2 | 4.15 | 4.36 |  | 
14 | O=C(/C=C/c1ccc(F)cc1)O[C@@H](c1ccccc1)[C@H]1O[C@@H]2CC(=O)O[C@@H]2[C@H]1O | > 100 | 19.6 | 4.36 | 31.6 | 11 | 15.7 | 5.36 | 12.7 |  | 
15 | O=C(/C=C/c1ccccc1)O[C@@H]1[C@H]2OC(=O)C[C@H]2O[C@@H]1[C@H](OC(=O)/C=C/c1ccccc1)c1ccccc1 | 48.6 | 2.65 | 12.2 | > 100 | 3.33 | 21.4 | > 100 | 11 |  | 
16 | O=C(/C=C/c1ccccc1)O[C@@H]1[C@H]2OC(=O)C[C@H]2O[C@@H]1[C@@H](OC(=O)/C=C/c1ccccc1)c1ccccc1 | > 100 | 0.31 | 1.45 | 6.69 | 0.15 | 2.15 | 1.64 | 10.2 |  | 
17 | O=C(/C=C/c1ccccc1)OC1C2OC(=O)CC2O[C@@H]1Cc1ccccc1 (single isomer, unassigned) | > 100 | 0.29 | 1.25 | 4.32 | 2.21 | 4.67 | 58.6 | 0.88 |  | 
18 | COc1ccc(/C=C/C(=O)OC2C3OC(=O)CC3O[C@@H]2Cc2ccccc2)cc1 (single isomer, unassigned) | > 100 | 0.84 | 0.94 | 4.34 | 0.27 | 1.02 | 61 | 3.58 |  | 
19 | O=C(/C=C/c1ccc([N+](=O)[O-])cc1)OC1C2OC(=O)CC2O[C@@H]1Cc1ccccc1 (single isomer, unassigned) | > 100 | 3.74 | 0.87 | 5.32 | 0.14 | 0.98 | 23.2 | 2.69 |  | 
20 | O=C(/C=C/c1ccc(F)cc1)OC1C2OC(=O)CC2O[C@@H]1Cc1ccccc1 (single isomer, unassigned) | > 100 | 2.63 | 1.02 | 8.22 | 1.02 | 0.25 | 29 | 1.52 |  | 
21 | O=C(/C=C/c1ccccc1)O[C@@H]1[C@H]([C@@H](O)c2ccccc2)O[C@H]2CC(=O)O[C@@H]12 [(+)-CRASSALACTONE B] | > 100 | 0.12 | 0.98 | 5.32 | 2.54 | 0.78 | 0.85 | 14.6 |  | 
22 | O=C(/C=C/c1ccccc1)O[C@H](c1ccccc1)[C@H]1O[C@@H]2CC(=O)O[C@@H]2[C@H]1O [(+)-CRASSALACTONE C] | > 100 |  |  | 88 | > 100 |  | 7.34 |  |  | 
23 | COc1cccc2c1C(=O)c1c(O)c3c(c(O)c1C2=O)C[C@@](O)(C(=O)CO)C[C@@H]3O[C@H]1C[C@H](N)[C@H](O)[C@H](C)O1 [DOXORUBICIN] |  |  | 0.065 |  | 0.92 |  |  |  |  | 
